The source of these data is publication PMC10004634 (PLOS ONE, 2023).

Targets include TNIK (Homo sapiens, UniProt Q9UKE5); SYK (Homo sapiens, UniProt P43405); TNK2 (Homo sapiens, UniProt Q07912); KIT(D816V) (Homo sapiens, UniProt P10721, D816V); EGFR (Homo sapiens, UniProt P00533); CAMK1G (Homo sapiens, UniProt Q96NX5); DYRK1B (Homo sapiens, UniProt Q9Y463); SRPK3 (Homo sapiens, UniProt Q9UPE1).
Common to all, as to experiment: biochemical
Holding throughout (design): KINOMEscan scanMAX competition binding, DNA-tagged kinases, qPCR read-out, percent control at 300 nM

The target of assay [1] is T1, ABL1(F317I)-nonphosphorylated (Homo sapiens, UniProt P00519, F317I).
T1 construct: nonphosphorylated

The next assay addresses T2, CSNK1A1L (Homo sapiens, UniProt Q8N752).
T2 sequence (Q8N752 1-337): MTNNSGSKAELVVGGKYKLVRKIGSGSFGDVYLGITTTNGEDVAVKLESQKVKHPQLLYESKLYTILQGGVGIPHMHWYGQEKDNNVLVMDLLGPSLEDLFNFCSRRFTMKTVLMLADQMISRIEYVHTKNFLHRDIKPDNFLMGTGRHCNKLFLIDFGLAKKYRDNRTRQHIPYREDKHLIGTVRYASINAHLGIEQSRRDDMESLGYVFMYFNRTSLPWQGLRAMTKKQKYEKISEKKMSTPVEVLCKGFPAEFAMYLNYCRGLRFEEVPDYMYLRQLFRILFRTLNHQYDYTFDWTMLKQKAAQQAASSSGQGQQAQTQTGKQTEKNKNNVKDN

Another assay deals with T3, PIK4CB (Homo sapiens, UniProt Q9UBF8).
T3 construct: gene PI4KB

A further assay concerns the target T4, PRP4 (Homo sapiens, UniProt Q13523).
T4 construct: gene PRPF4B

Assay [2] concerns the target T5, JAK1(JH2domain-pseudokinase) (Homo sapiens, UniProt P23458).
T5 construct: JH2domain-pseudokinase

A further assay addresses T6, BRSK1 (Homo sapiens, UniProt Q8TDC3).
T6 sequence (Q8TDC3 1-778): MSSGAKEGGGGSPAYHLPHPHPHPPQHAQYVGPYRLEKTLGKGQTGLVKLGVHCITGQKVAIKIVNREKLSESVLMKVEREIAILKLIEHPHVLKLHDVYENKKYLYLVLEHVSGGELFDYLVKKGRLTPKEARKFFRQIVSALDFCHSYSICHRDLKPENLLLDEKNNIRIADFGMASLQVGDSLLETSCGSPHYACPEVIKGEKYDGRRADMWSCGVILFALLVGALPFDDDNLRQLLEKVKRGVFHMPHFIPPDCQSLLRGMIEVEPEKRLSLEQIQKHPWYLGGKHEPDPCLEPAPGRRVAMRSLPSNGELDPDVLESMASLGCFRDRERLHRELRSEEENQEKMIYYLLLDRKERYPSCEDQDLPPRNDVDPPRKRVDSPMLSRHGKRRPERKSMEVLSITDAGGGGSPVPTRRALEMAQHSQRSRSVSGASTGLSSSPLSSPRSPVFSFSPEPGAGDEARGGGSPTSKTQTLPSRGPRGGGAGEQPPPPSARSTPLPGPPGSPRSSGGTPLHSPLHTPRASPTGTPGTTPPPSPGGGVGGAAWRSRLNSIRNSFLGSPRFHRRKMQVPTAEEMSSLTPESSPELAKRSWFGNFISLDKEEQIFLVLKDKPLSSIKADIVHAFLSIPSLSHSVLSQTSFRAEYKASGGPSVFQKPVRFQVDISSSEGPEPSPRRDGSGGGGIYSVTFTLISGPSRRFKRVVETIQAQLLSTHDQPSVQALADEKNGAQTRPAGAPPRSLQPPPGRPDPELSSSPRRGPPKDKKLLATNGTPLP

Another assay has as its target T7, ZAK (Homo sapiens, UniProt Q9NYL2).
T7 construct: gene MAP3K20

The mark [3] stands for this setting: read-out: Percent control / Tirabrutinib.
The mark [4] stands for this setting: read-out: Percent control / Acalabrutinib.
The mark [5] stands for this setting: read-out: Percent control / Ibrutinib.
Setting [6] is: read-out: Percent control / Zanubrutinib.

Like-named read-outs stand apart in the source and are kept apart here.

T7 sequence (Q9NYL2 whole entry): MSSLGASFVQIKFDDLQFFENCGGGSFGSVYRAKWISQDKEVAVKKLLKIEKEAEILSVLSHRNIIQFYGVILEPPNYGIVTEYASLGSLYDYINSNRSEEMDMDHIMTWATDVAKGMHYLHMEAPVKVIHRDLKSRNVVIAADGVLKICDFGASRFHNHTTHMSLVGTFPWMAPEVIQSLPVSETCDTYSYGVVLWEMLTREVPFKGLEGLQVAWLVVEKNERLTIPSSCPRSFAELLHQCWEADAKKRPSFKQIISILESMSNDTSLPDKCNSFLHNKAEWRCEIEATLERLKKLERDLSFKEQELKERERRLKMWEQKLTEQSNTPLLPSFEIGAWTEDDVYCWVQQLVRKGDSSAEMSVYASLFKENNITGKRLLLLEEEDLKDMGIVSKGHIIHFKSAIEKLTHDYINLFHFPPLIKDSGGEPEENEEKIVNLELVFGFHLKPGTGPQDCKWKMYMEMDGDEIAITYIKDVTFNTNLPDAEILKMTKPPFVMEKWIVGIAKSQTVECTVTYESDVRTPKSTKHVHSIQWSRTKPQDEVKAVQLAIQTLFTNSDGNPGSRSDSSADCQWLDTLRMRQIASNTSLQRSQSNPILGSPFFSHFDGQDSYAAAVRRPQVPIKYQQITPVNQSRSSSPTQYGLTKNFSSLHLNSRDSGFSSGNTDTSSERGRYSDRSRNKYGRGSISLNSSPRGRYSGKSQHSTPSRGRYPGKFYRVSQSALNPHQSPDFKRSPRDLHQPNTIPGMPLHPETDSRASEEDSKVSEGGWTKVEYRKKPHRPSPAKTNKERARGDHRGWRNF
DYRK1B, sequence (Q9Y463 whole entry): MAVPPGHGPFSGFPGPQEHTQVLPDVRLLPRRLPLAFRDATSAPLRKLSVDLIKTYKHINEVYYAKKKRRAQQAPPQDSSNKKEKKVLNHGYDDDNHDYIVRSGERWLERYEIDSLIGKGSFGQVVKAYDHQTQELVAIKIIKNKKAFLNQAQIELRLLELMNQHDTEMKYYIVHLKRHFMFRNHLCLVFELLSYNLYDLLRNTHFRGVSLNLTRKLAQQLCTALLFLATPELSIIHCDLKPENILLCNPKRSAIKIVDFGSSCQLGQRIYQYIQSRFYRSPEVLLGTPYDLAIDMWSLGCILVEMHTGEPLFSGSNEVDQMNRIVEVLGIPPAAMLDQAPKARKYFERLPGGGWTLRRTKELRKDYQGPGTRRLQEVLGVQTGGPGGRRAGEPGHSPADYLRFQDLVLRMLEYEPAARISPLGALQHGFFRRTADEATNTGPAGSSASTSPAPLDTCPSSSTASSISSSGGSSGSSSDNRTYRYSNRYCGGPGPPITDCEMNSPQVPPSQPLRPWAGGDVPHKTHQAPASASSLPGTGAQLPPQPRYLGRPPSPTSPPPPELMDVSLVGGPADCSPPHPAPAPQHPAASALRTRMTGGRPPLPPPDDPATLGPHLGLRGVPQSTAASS
EGFR, sequence (P00533 whole entry): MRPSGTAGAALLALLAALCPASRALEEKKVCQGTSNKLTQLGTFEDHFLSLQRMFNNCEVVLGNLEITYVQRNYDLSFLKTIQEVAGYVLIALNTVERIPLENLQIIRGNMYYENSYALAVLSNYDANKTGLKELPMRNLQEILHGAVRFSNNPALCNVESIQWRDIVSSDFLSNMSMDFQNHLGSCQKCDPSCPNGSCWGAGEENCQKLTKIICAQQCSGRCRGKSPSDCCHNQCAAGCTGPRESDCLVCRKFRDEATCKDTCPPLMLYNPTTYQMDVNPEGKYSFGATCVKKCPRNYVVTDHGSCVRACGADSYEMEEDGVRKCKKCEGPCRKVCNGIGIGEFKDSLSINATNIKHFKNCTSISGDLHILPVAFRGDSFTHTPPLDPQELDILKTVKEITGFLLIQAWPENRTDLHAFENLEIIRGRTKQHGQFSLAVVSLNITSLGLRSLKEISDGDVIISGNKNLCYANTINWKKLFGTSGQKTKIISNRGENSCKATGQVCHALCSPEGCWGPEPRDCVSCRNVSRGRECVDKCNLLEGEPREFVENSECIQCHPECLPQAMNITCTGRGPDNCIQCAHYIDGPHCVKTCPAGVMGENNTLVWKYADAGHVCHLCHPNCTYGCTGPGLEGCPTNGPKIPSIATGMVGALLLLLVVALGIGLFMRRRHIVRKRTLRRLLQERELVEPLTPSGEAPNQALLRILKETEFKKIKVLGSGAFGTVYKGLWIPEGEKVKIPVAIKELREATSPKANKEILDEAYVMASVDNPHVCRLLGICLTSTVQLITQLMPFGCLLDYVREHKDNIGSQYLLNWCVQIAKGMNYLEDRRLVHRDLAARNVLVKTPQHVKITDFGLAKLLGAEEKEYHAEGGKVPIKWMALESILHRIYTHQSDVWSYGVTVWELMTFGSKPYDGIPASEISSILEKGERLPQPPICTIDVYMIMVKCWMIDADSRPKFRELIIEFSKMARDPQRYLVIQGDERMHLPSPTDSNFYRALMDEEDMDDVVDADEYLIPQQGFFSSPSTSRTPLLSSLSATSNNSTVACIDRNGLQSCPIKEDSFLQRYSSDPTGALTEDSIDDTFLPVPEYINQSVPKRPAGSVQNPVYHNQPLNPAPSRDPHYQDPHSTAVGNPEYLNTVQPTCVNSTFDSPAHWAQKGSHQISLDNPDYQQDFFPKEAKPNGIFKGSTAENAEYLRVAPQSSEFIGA
T1 sequence (P00519 whole entry F317I): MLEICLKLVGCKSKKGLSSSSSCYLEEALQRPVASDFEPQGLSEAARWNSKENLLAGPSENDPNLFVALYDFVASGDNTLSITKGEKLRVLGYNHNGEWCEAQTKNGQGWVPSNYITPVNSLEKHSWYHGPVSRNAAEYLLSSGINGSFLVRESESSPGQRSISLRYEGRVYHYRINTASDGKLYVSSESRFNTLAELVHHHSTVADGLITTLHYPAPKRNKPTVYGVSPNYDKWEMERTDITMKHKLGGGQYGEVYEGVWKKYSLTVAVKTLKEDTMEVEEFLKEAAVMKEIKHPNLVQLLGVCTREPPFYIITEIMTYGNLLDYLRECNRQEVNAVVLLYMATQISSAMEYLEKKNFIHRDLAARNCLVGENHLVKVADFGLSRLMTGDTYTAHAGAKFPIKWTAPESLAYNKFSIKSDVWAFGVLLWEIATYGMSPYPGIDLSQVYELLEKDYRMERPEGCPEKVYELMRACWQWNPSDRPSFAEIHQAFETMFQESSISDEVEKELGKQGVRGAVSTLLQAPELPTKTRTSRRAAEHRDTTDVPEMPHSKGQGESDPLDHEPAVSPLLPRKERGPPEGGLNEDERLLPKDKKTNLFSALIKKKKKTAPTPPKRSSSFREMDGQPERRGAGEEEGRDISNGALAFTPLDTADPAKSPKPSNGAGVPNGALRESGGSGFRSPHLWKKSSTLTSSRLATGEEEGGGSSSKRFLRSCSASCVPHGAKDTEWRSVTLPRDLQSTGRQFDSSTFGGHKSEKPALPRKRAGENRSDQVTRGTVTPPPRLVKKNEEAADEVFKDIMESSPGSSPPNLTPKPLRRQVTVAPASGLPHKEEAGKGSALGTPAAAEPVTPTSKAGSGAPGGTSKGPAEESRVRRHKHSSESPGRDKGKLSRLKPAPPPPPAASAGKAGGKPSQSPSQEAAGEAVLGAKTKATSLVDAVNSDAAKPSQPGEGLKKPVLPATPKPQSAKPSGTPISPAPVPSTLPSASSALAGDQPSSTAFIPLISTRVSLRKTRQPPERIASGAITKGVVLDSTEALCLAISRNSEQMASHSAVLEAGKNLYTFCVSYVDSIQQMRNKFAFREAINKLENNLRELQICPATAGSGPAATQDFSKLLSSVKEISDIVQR
TNK2, sequence (Q07912 whole entry): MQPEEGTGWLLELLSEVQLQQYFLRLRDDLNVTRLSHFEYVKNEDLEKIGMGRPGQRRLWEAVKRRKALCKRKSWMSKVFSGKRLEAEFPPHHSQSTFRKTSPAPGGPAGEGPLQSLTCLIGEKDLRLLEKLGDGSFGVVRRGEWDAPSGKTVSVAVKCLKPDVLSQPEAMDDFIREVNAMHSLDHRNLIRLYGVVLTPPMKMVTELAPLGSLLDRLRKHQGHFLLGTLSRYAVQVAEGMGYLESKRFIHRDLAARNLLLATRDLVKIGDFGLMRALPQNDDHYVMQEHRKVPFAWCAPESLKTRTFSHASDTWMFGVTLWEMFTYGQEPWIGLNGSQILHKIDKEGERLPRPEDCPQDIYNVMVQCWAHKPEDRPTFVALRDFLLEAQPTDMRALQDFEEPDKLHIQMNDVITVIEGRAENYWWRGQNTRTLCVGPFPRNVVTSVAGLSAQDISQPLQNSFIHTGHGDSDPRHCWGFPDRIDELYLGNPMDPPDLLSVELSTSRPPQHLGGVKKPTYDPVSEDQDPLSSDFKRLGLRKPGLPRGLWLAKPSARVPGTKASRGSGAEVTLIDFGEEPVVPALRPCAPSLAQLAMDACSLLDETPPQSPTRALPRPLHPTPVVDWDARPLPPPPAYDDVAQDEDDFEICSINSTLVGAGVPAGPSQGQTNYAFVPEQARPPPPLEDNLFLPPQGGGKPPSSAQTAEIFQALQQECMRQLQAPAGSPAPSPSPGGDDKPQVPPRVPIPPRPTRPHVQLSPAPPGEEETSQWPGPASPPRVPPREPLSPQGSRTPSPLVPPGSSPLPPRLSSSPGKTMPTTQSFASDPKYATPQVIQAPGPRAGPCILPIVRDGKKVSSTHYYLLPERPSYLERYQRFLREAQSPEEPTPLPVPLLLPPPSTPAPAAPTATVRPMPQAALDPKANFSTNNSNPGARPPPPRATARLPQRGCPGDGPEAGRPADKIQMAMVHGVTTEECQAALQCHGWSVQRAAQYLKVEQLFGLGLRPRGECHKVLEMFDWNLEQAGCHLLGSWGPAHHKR

`CC#CC(=O)N1CC[C@@H](n2c(=O)n(-c3ccc(Oc4ccccc4)cc3)c3c(N)ncnc32)C1` [Tirabrutinib]: the remaining binding at 0.3 µM turned out to be 92% at TNIK (setting [3]); 93% at SYK (setting [3]); 77% in assay [1] (setting [3]); 93% on CSNK1A1L (setting [3]); 79% on PIK4CB (setting [3]); 93% at TNK2 (setting [3]). For the same compound, the remaining binding at 0.3 µM stood at 93% at KIT(D816V) (setting [3]); 99% on PRP4 (setting [3]); 100% at EGFR (setting [3]); 98% at CAMK1G (setting [3]); 70% on DYRK1B (setting [3]); 79% in assay [2] (setting [3]).
In the case of `CC#CC(=O)N1CCC[C@H]1c1nc(-c2ccc(C(=O)Nc3ccccn3)cc2)c2c(N)nccn12` [Acalabrutinib], the remaining binding at 0.3 µM at TNIK (setting [4]) came out at 79%; at SYK (setting [4]) it was 89%; on SRPK3 (setting [4]), 86%; in assay [1] (setting [4]), 81%; on BRSK1 (setting [4]), 92%; on CSNK1A1L (setting [4]), 84%. In addition, the remaining binding at 0.3 µM at PIK4CB (setting [4]) is 72%; on ZAK (setting [4]), 83%; on KIT(D816V) (setting [4]) it was 92%; on EGFR (setting [4]), 82%; on CAMK1G (setting [4]), 97%; at DYRK1B (setting [4]), 72%. Moreover, the remaining binding at 0.3 µM in assay [2] (setting [4]) was found to be 99%.
As for `C=CC(=O)N1CCC[C@@H](n2nc(-c3ccc(Oc4ccccc4)cc3)c3c(N)ncnc32)C1` [Ibrutinib], the remaining binding at 0.3 µM on TNIK (setting [5]) is 86%; on SRPK3 (setting [5]), 96%; in assay [1] (setting [5]), 42%; at BRSK1 (setting [5]), 72%; at CSNK1A1L (setting [5]), 93%; at TNK2 (setting [5]), 48%. Besides, the remaining binding at 0.3 µM worked out at 70% on ZAK (setting [5]), 96% at PRP4 (setting [5]), 0.2% at EGFR (setting [5]) and 80% in assay [2] (setting [5]).
For the compound `C=CC(=O)N1CCC([C@@H]2CCNc3c(C(N)=O)c(-c4ccc(Oc5ccccc5)cc4)nn32)CC1` [Zanubrutinib], the remaining binding at 0.3 µM on TNIK (setting [6]) is 85%; at SYK (setting [6]) it was 81%; on SRPK3 (setting [6]) it was 100%; at BRSK1 (setting [6]) it was 92%; at CSNK1A1L (setting [6]), 83%; at PIK4CB (setting [6]), 94%. Also, the remaining binding at 0.3 µM is 90% at TNK2 (setting [6]); 62% on ZAK (setting [6]); 98% at KIT(D816V) (setting [6]); 100% on PRP4 (setting [6]); 96% on CAMK1G (setting [6]); 71% on DYRK1B (setting [6]). For the same compound, in assay [2] (setting [6]), the remaining binding at 0.3 µM turned out to be 88%.
